In PubChem BioAssay AID1963966 (Molecular Pharmacology Branch, DTP, NCI, 2024):

Tested on: 935938-334-R-J1-PDC spheroids with HUVEC/MSC, viability
Assay: Anticancer human tumor 935938-334-R-J1-PDC patient-derived small intestine adenocarcinoma cell line growth inhibition [PI3K]
Conditions: for IC50: curve of first compound; for viability, T/C: stronger effect = lower value
Procedure, shortened: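 Tumor cells grown as multi-cell spheroids with HUVEC endothelial cells and MSC fibroblast-like stroma were treated with targeted agents combined with inavolisib, alpelisib, duvelisib or copanlisib. Doses fell in half-log steps from near clinical Cmax, else from 10 microM. Viability was measured.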

[1] = second compound 0.0316 µM, first compound 0.0316 µM
[2] = second compound 0.0316 µM, first compound 0.1 µM
[3] = second compound 0.0316 µM, first compound 0.316 µM
[4] = second compound 0.0316 µM, first compound 1 µM
[5] = second compound 0.0316 µM, first compound 3.16 µM
[6] = second compound 0.0316 µM, first compound 10 µM
[7] = second compound 0.1 µM, first compound 0.0316 µM
[8] = second compound 0.1 µM, first compound 0.1 µM
[9] = second compound 0.1 µM, first compound 0.316 µM
[10] = second compound 0.1 µM, first compound 1 µM
[11] = second compound 0.1 µM, first compound 3.16 µM
[12] = second compound 0.1 µM, first compound 10 µM
[13] = second compound 0.316 µM, first compound 0.0316 µM
[14] = second compound 0.316 µM, first compound 0.1 µM
[15] = second compound 0.316 µM, first compound 0.316 µM
[16] = second compound 0.316 µM, first compound 1 µM
[17] = second compound 0.316 µM, first compound 3.16 µM
[18] = second compound 0.316 µM, first compound 10 µM
[19] = second compound 1 µM, first compound 0.0316 µM
[20] = second compound 1 µM, first compound 0.1 µM
[21] = second compound 1 µM, first compound 0.316 µM
[22] = second compound 1 µM, first compound 1 µM
[23] = second compound 1 µM, first compound 3.16 µM
[24] = second compound 1 µM, first compound 10 µM
[25] = second compound 3.16 µM, first compound 0.0316 µM
[26] = second compound 3.16 µM, first compound 0.1 µM
[27] = second compound 3.16 µM, first compound 0.316 µM
[28] = second compound 3.16 µM, first compound 1 µM
[29] = second compound 3.16 µM, first compound 3.16 µM
[30] = second compound 3.16 µM, first compound 10 µM
[31] = second compound 10 µM, first compound 0.0316 µM
[32] = second compound 10 µM, first compound 0.1 µM
[33] = second compound 10 µM, first compound 0.316 µM
[34] = second compound 10 µM, first compound 1 µM
[35] = second compound 10 µM, first compound 3.16 µM
[36] = second compound 10 µM, first compound 10 µM
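Note: compound exposure lasted seven days before viability was read.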
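Throughout, for viability, T/C: percent of vehicle DMSO treated spheroid viability so 100% = untreated.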

## CC(C)NCC(C(=O)N1CCN(c2ncnc3c2C(C)CC3O)CC1)c1ccc(Cl)cc1 (stereo unspecified) + CC(Nc1ncnc2nc[nH]c12)c1cc2cccc(Cl)c2c(=O)n1-c1ccccc1
Second compound 0.0316 µM
  IC50: 7260 nM
Second compound 0.1 µM
  IC50: 3420 nM
Second compound 0.316 µM
  IC50: 6420 nM
Second compound 1 µM
  IC50: 1780 nM
Second compound 3.16 µM
  IC50: 2560 nM
Second compound 10 µM
  IC50: 1900 nM
[1]
  viability, T/C: 75.5%
[2]
  viability, T/C: 80%
[3]
  viability, T/C: 72.4%
[4]
  viability, T/C: 64%
[5]
  viability, T/C: 78.6%
[6]
  viability, T/C: 40.6%
[7]
  viability, T/C: 91.7%
[8]
  viability, T/C: 69.4%
[9]
  viability, T/C: 79.6%
[10]
  viability, T/C: 60.5%
[11]
  viability, T/C: 55.1%
[12]
  viability, T/C: 34.1%
[13]
  viability, T/C: 93.1%
[14]
  viability, T/C: 93%
[15]
  viability, T/C: 60.6%
[16]
  viability, T/C: 58%
[17]
  viability, T/C: 65.8%
[18]
  viability, T/C: 42.3%
[19]
  viability, T/C: 100%
[20]
  viability, T/C: 87.3%
[21]
  viability, T/C: 59.5%
[22]
  viability, T/C: 67.2%
[23]
  viability, T/C: 40.5%
[24]
  viability, T/C: 31.4%
[25]
  viability, T/C: 64.6%
[26]
  viability, T/C: 78.1%
[27]
  viability, T/C: 70%
[28]
  viability, T/C: 64.1%
[29]
  viability, T/C: 44.1%
[30]
  viability, T/C: 49.6%
[31]
  viability, T/C: 69.5%
[32]
  viability, T/C: 59.8%
[33]
  viability, T/C: 65.5%
[34]
  viability, T/C: 62%
[35]
  viability, T/C: 40.1%
[36]
  viability, T/C: 40.8%

## CNC(=O)c1ccc(N2C(=S)N(c3ccc(C#N)c(C(F)(F)F)c3)C(=O)C2(C)C)cc1F + CC(Nc1ncnc2nc[nH]c12)c1cc2cccc(Cl)c2c(=O)n1-c1ccccc1
Second compound 0.0316 µM
  IC50: > 10000 nM
Second compound 0.1 µM
  IC50: > 10000 nM
Second compound 0.316 µM
  IC50: > 10000 nM
Second compound 1 µM
  IC50: > 10000 nM
Second compound 3.16 µM
  IC50: > 10000 nM
Second compound 10 µM
  IC50: > 10000 nM
[1]
  viability, T/C: 102%
[2]
  viability, T/C: 94.8%
[3]
  viability, T/C: 136%
[4]
  viability, T/C: 85.2%
[5]
  viability, T/C: 78.2%
[6]
  viability, T/C: 133%
[7]
  viability, T/C: 98.1%
[8]
  viability, T/C: 84.4%
[9]
  viability, T/C: 102%
[10]
  viability, T/C: 90%
[11]
  viability, T/C: 81.3%
[12]
  viability, T/C: 84.7%
[13]
  viability, T/C: 100%
[14]
  viability, T/C: 72.2%
[15]
  viability, T/C: 95.3%
[16]
  viability, T/C: 83.6%
[17]
  viability, T/C: 95%
[18]
  viability, T/C: 65.4%
[19]
  viability, T/C: 97.4%
[20]
  viability, T/C: 83.9%
[21]
  viability, T/C: 70.8%
[22]
  viability, T/C: 69.7%
[23]
  viability, T/C: 96%
[24]
  viability, T/C: 73.5%
[25]
  viability, T/C: 72.8%
[26]
  viability, T/C: 91.4%
[27]
  viability, T/C: 103%
[28]
  viability, T/C: 99.9%
[29]
  viability, T/C: 61%
[30]
  viability, T/C: 81.8%
[31]
  viability, T/C: 80.8%
[32]
  viability, T/C: 92%
[33]
  viability, T/C: 72.3%
[34]
  viability, T/C: 71.6%
[35]
  viability, T/C: 75.3%
[36]
  viability, T/C: 63.9%

## C#Cc1c(F)ccc2cc(O)cc(-c3ncc4c(N5CC6CCC(C5)N6)nc(OCC56CCCN5CC(F)C6)nc4c3F)c12 (stereo unspecified) + Cc1nc(NC(=O)N2CCCC2C(N)=O)sc1-c1ccnc(C(C)(C)C(F)(F)F)c1
Second compound 0.0316 µM
  IC50: 987 nM
Second compound 0.1 µM
  IC50: 1870 nM
Second compound 0.316 µM
  IC50: 1490 nM
Second compound 1 µM
  IC50: 528 nM
Second compound 3.16 µM
  IC50: 48.9 nM
Second compound 10 µM
  IC50: < 31.6 nM
[1]
  viability, T/C: 101%
[2]
  viability, T/C: 89.2%
[3]
  viability, T/C: 107%
[4]
  viability, T/C: 49.4%
[5]
  viability, T/C: 36.8%
[6]
  viability, T/C: 32.7%
[7]
  viability, T/C: 88.8%
[8]
  viability, T/C: 73.6%
[9]
  viability, T/C: 79%
[10]
  viability, T/C: 60%
[11]
  viability, T/C: 40.7%
[12]
  viability, T/C: 27.6%
[13]
  viability, T/C: 94.4%
[14]
  viability, T/C: 80%
[15]
  viability, T/C: 77.3%
[16]
  viability, T/C: 59.5%
[17]
  viability, T/C: 33.4%
[18]
  viability, T/C: 29.4%
[19]
  viability, T/C: 76.5%
[20]
  viability, T/C: 85.9%
[21]
  viability, T/C: 60.4%
[22]
  viability, T/C: 35.4%
[23]
  viability, T/C: 29.3%
[24]
  viability, T/C: 21.1%
[25]
  viability, T/C: 51.5%
[26]
  viability, T/C: 46.5%
[27]
  viability, T/C: 40.7%
[28]
  viability, T/C: 30.8%
[29]
  viability, T/C: 25.7%
[30]
  viability, T/C: 23.4%
[31]
  viability, T/C: 47.8%
[32]
  viability, T/C: 33.2%
[33]
  viability, T/C: 36.8%
[34]
  viability, T/C: 27.6%
[35]
  viability, T/C: 17.3%
[36]
  viability, T/C: 16%
